Experimental findings from a melting point compilation (Tetko et al.; mined from patent text by program, amines drawn as free bases though some values may be those of a salt) are described below.

Each structure is given as a SMILES string.

In the case of `CC(C)(C)C(=O)Nc1ccccc1CC1NCCc2ccccc21` (stereo not drawn), the melting point turned out to be 168 °C.
In the case of `CC(=O)Nc1cccc2c1C(=O)c1c-2n[nH]c1C(C)C`, the melting point was over 250 °C.
Regarding `CCOC(=O)[C@H](CSC(=O)c1ccccc1)NC(=O)c1ccccc1`, the melting point was found to be 81 °C.
As for `Cc1ccc(S(=O)(=O)Nc2ccc(SC#N)cc2[N+](=O)[O-])cc1`, the melting point was in the range of 121 to 122 °C.
The compound `CNC(=O)CC1CN=C(c2cc3cc(Oc4ccc(S(C)(=O)=O)nc4)cc(OC)c3[nH]2)S1` (stereo not drawn) came in with a melting point of 201 to 202 °C.
For `Cc1cc2nc3[nH]c4ccc(Br)cc4c3nc2cc1C` the value was 319 to 322 °C.
For `COc1ccccc1C1=NN(C(=O)c2cccnc2)CC1C` (stereo not drawn) the value was 124 to 125 °C; for `O=C(OC(=O)N(c1ccccc1)c1ccccc1)N(c1ccccc1)c1ccccc1`, 159 to 162 °C; for `C=CCNc1cc(C(=O)OCC)nc2cn[nH]c12`, 140 to 145 °C.
For `Cc1nc(C)n(-c2cc(C)c3[nH]c(=O)ccc3c2)c1I`, the melting point lay in the range of 242 to 245 °C.
To `O=c1oc2c(Cl)cccc2c(O)c1-c1ccccc1` belongs 245 °C; to `Nc1cccc(Nc2nccc(Sc3cccc(Br)c3)n2)c1`, 109 to 110 °C; to `COC(=O)c1ccc(N2C(=O)C(O)=C(C(=O)c3ccc(C)cc3)C2c2ccc(C(C)(C)C)cc2)nc1` (stereo not drawn), 287 to 288 °C.
`CCc1[nH]c(=O)c(C#N)cc1-c1ccncc1` yielded a melting point of over 300 °C.
As for `Cn1c([N+](=O)[O-])cnc1C1=NO[C@H]2CCCCC[C@@H]12` (relative stereo), the melting point fell in the range of 93 to 95 °C.
`CCCc1nc2c(N)nc3ccc(Br)cc3c2s1` showed a melting point of 177 to 180 °C.
Compound `ClCc1ccc2oc(-c3cccs3)nc2c1` had a melting point of 152 to 153 °C.
To `CNCC(O)COc1cc(-c2ccc(OC)cc2)nc2cc(C)ccc12` (racemic) belongs 140 to 142 °C; to `O=C(O)Cc1ccc(OCCNC(=O)C2Cc3ccccc3N2S(=O)(=O)c2ccc(-c3cc(C(F)(F)F)ccc3F)cc2)cc1` (stereo not drawn), 81 to 84 °C; to `O=C(NCc1ccc(Cl)cc1)c1cc(Cl)c2cccnc2c1O`, 163 to 166 °C.
To `S=c1sc(=Nc2ccc(Cl)cc2)n2n1CCCC2` belongs 96 to 97 °C; to `Cc1ccc2c(c1)Sc1ccc(Cl)cc1CC2N1CCN(CCN2CCOC2=O)CC1` (stereo not drawn), 161 to 163 °C.
For `CCOC(=O)c1cc(=O)c(Sc2ccccc2)co1` the value was 79 to 81 °C.
In turn, `CNC(=NC#N)NCCCCc1csc(NC(=N)N)n1` had a melting point of 165 to 168 °C.
`COC(=O)C(CO)N(Cc1cc(F)ccc1[N+](=O)[O-])S(=O)(=O)c1ccc(OC)cc1` (stereo not drawn): the melting point was in the range of 83 to 88 °C.
With `CCc1nc2ccccc2c(=O)n1-c1ccc(F)cc1`, the melting point is 178 °C.
To `COc1cc(C(=O)N2CCCCc3cc(Cl)ccc32)ccc1OCc1ccccc1Cl` belongs 135 °C.
`CS(=O)(=O)CC(=O)c1ccc(Cl)cc1` registered a melting point of 132 to 137 °C.
Consider `OCC1=C(c2cc3ccccc3s2)N2CCN=C2S1`, for which the melting point was 138 to 140 °C.
In turn, `Oc1cccc(C2CCCN2Cc2cccnc2)c1` (stereo not drawn) came in with a melting point of 129 to 131 °C.
In turn, `CSc1nc2c(cnn2CC(O)c2ccccc2)c(=O)[nH]1` (stereo not drawn) yielded a melting point of 208 to 209 °C.
Consider `Cc1c(F)c(N2CCNCC2)c(C)c2c1c(=O)c(C(=O)O)cn2C1CC1`, for which the melting point lay in the range of 185 to 187 °C.
Compound `CC[C@H](C)C(OCc1ccccc1)[C@H]1[C@H]([N+](=O)[O-])[C@@H](c2cccs2)N[C@@H]1C(=O)NCCC(=O)O` (stereo partly drawn) displayed a melting point of 79 to 80 °C.
`N[C@@H]1C[C@H]2CC[C@@H]1N(c1cc3c(cc1F)c(=O)c(C(=O)O)cn3C1CC1)C2` displayed a melting point of 267 to 270 °C.
In the case of `COc1ccc(Cl)cc1C(=O)NCCc1ccc(-c2ccc(OC(C)C(=O)O)cc2)cc1` (stereo not drawn), the melting point was 145 °C.
In turn, `O=C1NC(=O)C(Cc2ccc(SCCc3ccccc3)cc2)S1` (stereo not drawn) showed a melting point of 58 to 65 °C.
As for `CCOC(=O)n1ccc(=O)c2cnc(N3CCN(CC)CC3)nc21`, the melting point amounted to 161 °C.
In the case of `OC[C@H]1C2CCC(C2)[C@@H]1CO`, the melting point worked out at 58 °C.
`Cc1ccc(Oc2ccc(Br)cc2O)c(O)c1` had a melting point of 95 to 97 °C.
For the compound `NC(=O)N1CCC(O[N+](=O)[O-])CC1`, the melting point is 110 to 111 °C.
`CC(CCC(=O)O)(c1ccc(OCc2ccc3ccccc3n2)cc1)c1ccc(OCc2nc3ccccc3s2)cc1` (stereo not drawn) showed a melting point of 68 to 72 °C.
`CCOC(=O)c1cnc(C)nc1NCc1ccc(-c2ccccc2-c2nnn[nH]2)cc1`: the melting point lay within 121 to 123 °C.
`CCN(CC)c1ccc2c(C)c(C#Cc3ccccc3)c(=O)oc2c1`: the melting point lay within 142 to 144 °C.
Compound `Fc1ccc(C(CCCN2CCN(c3cc4ccccc4cn3)CC2)c2ccc(F)cc2)cc1` returned a melting point of 116 to 118 °C.
With `CCCCCCN1c2ccccc2NC(=O)c2cscc21`, the melting point is 112 to 113 °C.
The compound `CCCc1cc(N2CCN(c3ccncc3)CC2)ccc1OCCCC(=O)OCC` displayed a melting point of 65 to 67 °C.
`CC1COCc2nc3cnc4cc(Br)ccc4c3n21` (stereo not drawn) came in with a melting point of 207 to 209 °C.
As to `O=C(OC1CCCCC1)C1Oc2ccccc2Cc2ccccc2O1`, the melting point lay within 120 to 125 °C.
For `CCOC(=O)N1CCN(c2ccc(-n3cnn(C(C)(C)C(=O)c4ccc(Cl)cc4)c3=O)cc2)CC1` the value was 137 °C; for `CN1c2ccccc2-c2nc3ccc(Cl)cc3c3cc(OS(=O)(=O)C(F)(F)F)cc1c23`, 193 to 195 °C.
`CN1CCN(c2cccc3ccc(C(O)(c4ccccc4)c4ccccc4)cc23)CC1` gave a melting point of 218 °C.
As for `COC(=O)CCCOc1ccc(C=O)cc1OC`, the melting point is 69 °C.
With `CC(=O)SCC(Cc1cccnc1)C(=O)Nc1cccc(C(=O)O)c1` (stereo not drawn), the melting point is over 200 °C.
`CN1CCC(N(C)S(=O)(=O)c2ccc(Nc3nccc(Nc4cc(F)c(F)c(F)c4)n3)cc2)CC1` showed a melting point of 227 °C.
For `CC(C)(C)OC(=O)Nc1ccc(I)cc1NC(=O)CC(=O)c1cccc(C#N)c1` the value was 182 to 183 °C; for `Clc1ccc(-c2cc(C3=CCN(Cc4c[nH]c5ncccc45)CC3)on2)cc1`, 245 to 247 °C.
To `CCOCc1nc2c(N)nc3cc(OCCCCCCNC(=O)NC(C)C)ccc3c2n1CC(C)(C)NC(=O)NC(C)C` belongs 205 to 209 °C.
For `CN(C=O)c1ccc(F)c(Cl)c1` the value was 47 to 48 °C; for `CN1CCN(c2ncnc3c(NC(=O)c4c(Cl)cccc4Cl)cccc23)C1=O`, over 250 °C; for `CCOC(=O)c1cn(-c2nnn[nH]2)c2cc(F)c(F)cc2c1=O`, 233 to 236 °C.
`CN(C)c1nc(-c2ccc3c(c2)OCO3)c2cc3c(cc2n1)OCO3`: the melting point fell in the range of 200 to 206 °C.
The compound `Cc1nc2n(c(=O)c1CCBr)CCCS2` gave a melting point of 215 °C.
`COc1ccc(-c2nc(S(=O)c3ccccc3)n(C)c2-c2ccc(OC)cc2)cc1` (stereo not drawn) displayed a melting point of 114 to 115 °C.
For `CC[C@H]1CC[C@H](CCc2ccc(C(=O)CCC(=O)O)cc2)CC1` the value was 141 to 143 °C; for `N#Cc1cc2c(cc1O)OCC21C(=O)N(Cc2ccccc2C(F)(F)F)c2ccccc21` (stereo not drawn), 122 to 124 °C.
For `CCNC(=O)c1sc(C)cc1[Si](C)(C)C` the value was 112 to 115 °C.
As for `Cc1cc(O)c(Oc2ccccc2C#N)cc1-c1ccsc1`, the melting point is 155 to 159 °C.
With `CC(C)(CCn1ccnc1)NCC(O)c1ccc(O)c(CO)c1` (stereo not drawn), the melting point was 135 to 137 °C.
Compound `CCCCNc1ncnc2c1ncn2CCCN1CCC(NC(=O)c2ccccc2)CC1` yielded a melting point of 190 to 192 °C.
To `Cc1ccc(C(=O)n2nc(Nc3ccc(O)cc3)nc2N)cc1` belongs 221 to 223 °C.
Take `N#CC(Cc1ccccc1)(Cc1ccccc1)C(=O)O`: the melting point came out at 194 °C.
The compound `O=C1CCC(=O)N1c1ccc(N2CCN(c3ccc(OCC(O)(Cn4cncn4)c4ccc(Cl)cc4Cl)cc3)CC2)cc1` (stereo not drawn) had a melting point of 212 to 216 °C.
`CCCCCCCCCCCCCCCc1c([N+](=O)[O-])cc([N+](=O)[O-])c(O)c1[N+](=O)[O-]` had a melting point of 53 to 56 °C.
`O=C(c1ccc(F)cc1)N(CCCCn1ccnc1)C1=Nc2cccc3cccc1c23` showed a melting point of 109 to 110 °C.
As for `C=C(C)C(=O)Oc1ccc(S(=O)(=O)ON=C(C#N)c2cccs2)cc1`, the melting point lay within 165 to 166 °C.
Regarding `CCOc1cc2c(cc1O)C(=O)CC(C)(C)O2`, the melting point fell in the range of 129 to 130 °C.
To `Cc1ccccc1OCCCc1sc(-n2ccnc2C)nc1-c1ccc(Cl)cc1` belongs 112 to 113 °C; to `CC(=O)NCC1CN(c2ncccc2Cl)C1`, 109 to 111 °C.
`CN(C)S(=O)(=O)c1ccc(Oc2ccc([N+](=O)[O-])cc2C#N)cc1` came in with a melting point of 222 to 223 °C.
As for `CCC(=O)Nc1ccc(C(=O)C(C)Br)cc1` (stereo not drawn), the melting point lay in the range of 126 to 127 °C.
For `CC(=O)OC1CSC(Oc2cncc(Br)c2)C(OC(C)=O)C1OC(C)=O` (stereo not drawn) the value was 174 °C.
To `CCCc1c(OCCOCCOCCOCCOc2ccc3ccc(OCC(=O)O)cc3c2C(C)=O)ccc(C(C)=O)c1O` belongs 57 to 58 °C; to `O=C1OCCC1Oc1cc(F)ccc1[N+](=O)[O-]` (stereo not drawn), 98 to 100 °C; to `COc1ccc(-n2nc(C(C)(C)C)cc2NC(=O)c2nccc3cc(Oc4cc(Cl)ncn4)ccc23)cc1`, 156 °C.
`Cc1cccc(-c2sc(N)nc2-c2ccnc(-c3ccc(OCCN4CCCC4)cc3)c2)n1` showed a melting point of 150 °C.
In the case of `COc1ccc(P2Oc3ccccc3-c3ccccc32)cc1` (stereo not drawn), the melting point lay within 104 to 106 °C.
The compound `Cc1c(Br)c2ccccn2c1C(=O)c1ccc(N)c(C(=O)O)c1` had a melting point of 230 °C.
In turn, `Cc1ncc2c(c1OCC(=O)O)COC2c1ccc(Cl)cc1` (stereo not drawn) showed a melting point of 226 to 230 °C.
